{"source": "ChEMBL document CHEMBL5230087", "about": "“Inhibitors of SARS-CoV-2 Entry: Current and Future Opportunities” (J Med Chem, 2020)", "key": {"[1]": {"biological_target": "T1, Angiotensin-converting enzyme 2 (Homo sapiens, UniProt Q9BYF1)", "T1 sequence (Q9BYF1 whole entry)": "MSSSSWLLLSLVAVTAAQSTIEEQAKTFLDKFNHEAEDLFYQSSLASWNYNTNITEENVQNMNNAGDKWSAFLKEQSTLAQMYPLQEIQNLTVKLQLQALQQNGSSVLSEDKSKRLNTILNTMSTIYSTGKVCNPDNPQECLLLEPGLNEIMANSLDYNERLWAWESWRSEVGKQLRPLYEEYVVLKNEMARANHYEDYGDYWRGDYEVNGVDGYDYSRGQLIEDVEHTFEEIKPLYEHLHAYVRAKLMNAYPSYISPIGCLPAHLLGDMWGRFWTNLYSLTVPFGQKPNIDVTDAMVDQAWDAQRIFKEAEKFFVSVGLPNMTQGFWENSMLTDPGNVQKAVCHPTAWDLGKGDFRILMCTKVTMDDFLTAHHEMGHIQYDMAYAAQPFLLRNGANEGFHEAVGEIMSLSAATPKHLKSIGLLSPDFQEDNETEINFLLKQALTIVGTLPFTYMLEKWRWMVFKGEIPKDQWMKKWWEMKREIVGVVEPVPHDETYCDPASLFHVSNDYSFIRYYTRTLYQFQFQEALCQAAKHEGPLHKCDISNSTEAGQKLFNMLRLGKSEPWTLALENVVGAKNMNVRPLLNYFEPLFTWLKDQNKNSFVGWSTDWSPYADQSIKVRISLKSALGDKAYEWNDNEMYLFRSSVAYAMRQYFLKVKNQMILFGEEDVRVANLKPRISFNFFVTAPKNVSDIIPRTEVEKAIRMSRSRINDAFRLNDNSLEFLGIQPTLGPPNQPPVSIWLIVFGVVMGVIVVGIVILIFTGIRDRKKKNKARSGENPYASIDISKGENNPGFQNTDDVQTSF", "assay": "Inhibition of SARS-CoV S binding to human recombinant ACE2 expressed in Escherichia coli BL21(DE3) incubated for 2 hrs by ELISA method"}, "[2]": {"assay": "Antiviral activity against HCoV-NL63 assessed as viral growth inhibition", "assay_type": "functional, Human coronavirus NL63"}, "[3]": {"assay": "Inhibition of MERS-CoV S protein RBD (E367 to Y606 residues) expressed in Fc portion of the human IgG1 in CHO cells by chromatography method", "set-up": "species or system Middle East respiratory syndrome-related coronavirus"}, "[4]": {"assay": "Cytotoxicity against african green monkey Vero cells incubated for 3 days", "assay_type": "toxicity, cell-based", "conditions": "chlorocebus sabaeus, time 3 day"}, "Human coronavirus 229E [5]": {"system": "Human coronavirus 229E", "assay": "Antiviral activity against HCoV-229E", "assay_type": "functional, organism-based"}, "[6]": {"assay": "Selectivity index, ratio of CC50 for African green monkey Vero cells to EC50 for SARS-CoV-2 nCoV-2019", "assay_type": "toxicity", "conditions": "read-out: Selectivity Index"}, "SARS-CoV-2": {"system": "SARS-CoV-2", "assay": "Antiviral activity against SARS-COV2 infected in African green monkey Vero B cells incubated for 48 hrs by ELISA", "assay_type": "functional, organism-based", "conditions": "Severe acute respiratory syndrome coronavirus 2, Vero B"}, "[7]": {"biological_target": "T1, Angiotensin-converting enzyme 2", "assay": "Inhibition of human recombinant ACE2"}, "[8]": {"biological_target": "T1, Angiotensin-converting enzyme 2", "assay": "Inhibition of human recombinant ACE2 at 50 uM using (7Mca-Y-V-A- D -A-P- K(Knp) as a flurogenic substrate measured after 10 mins by fluorescence based analysis"}, "HeLa": {"system": "HeLa", "assay": "Antiproliferative activity against human HeLa cells assessed as reduction in cell growth inhibition", "assay_type": "functional, cell-based"}, "Human coronavirus 229E [9]": {"system": "Human coronavirus 229E", "assay": "Antiviral activity against HCoV-229E assessed as reduction of viral RNA level at 4 uM", "assay_type": "functional, organism-based"}, "[10]": {"assay": "Cytotoxicity against African green monkey Vero cells by MTT assay", "assay_type": "toxicity, cell-based", "conditions": "chlorocebus sabaeus"}, "Ebolavirus": {"system": "Ebolavirus", "assay": "microbe, parasite or virus in culture", "assay_type": "functional, organism-based", "conditions": "Orthoebolavirus"}, "[11]": {"assay": "Antiviral activity against pseudovirus SARS-CoV spike protein infected in HeLa cells over expressing ACE2 assessed as inhibition on pseudovirus infection incubated for 52 hrs by luminescence based microplate reader analysis", "assay_type": "functional, cell-based"}, "SARS-CoV": {"system": "SARS-CoV", "assay": "Antiviral activity against SARS-CoV infected in African green monkey Vero cells assessed as viral growth inhibition", "assay_type": "functional, organism-based", "conditions": "Severe acute respiratory syndrome-related coronavirus"}, "Procathepsin L": {"biological_target": "Procathepsin L (Homo sapiens, UniProt P07711)", "sequence (P07711 whole entry)": "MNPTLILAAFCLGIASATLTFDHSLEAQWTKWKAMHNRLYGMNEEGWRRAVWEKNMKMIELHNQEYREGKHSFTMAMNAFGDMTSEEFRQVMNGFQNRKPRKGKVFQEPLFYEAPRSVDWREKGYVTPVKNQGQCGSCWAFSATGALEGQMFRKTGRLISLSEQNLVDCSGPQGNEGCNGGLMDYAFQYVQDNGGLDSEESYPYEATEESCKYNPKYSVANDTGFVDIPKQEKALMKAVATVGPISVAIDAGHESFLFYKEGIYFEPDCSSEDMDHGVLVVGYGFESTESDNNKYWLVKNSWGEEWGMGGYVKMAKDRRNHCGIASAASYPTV", "assay": "Inhibition of human recombinant Cathepsin L […] using Z-FR-AMC as substrate incubated for 30 mins by fluorometric assay"}, "[12]": {"biological_target": "T1, Angiotensin-converting enzyme 2", "assay": "Inhibition of human ACE2 (unknown origin) at 0.5 uM"}, "[13]": {"biological_target": "T1, Angiotensin-converting enzyme 2", "assay": "Binding affinity to ACE2 (unknown origin) at 10 uM assessed as inhibition constant"}}, "data": [{"smiles": "CC[C@H](C)[C@H](NC(=O)[C@H](CO)NC(=O)[C@H](CCCCN)NC(=O)[C@H](CCC(N)=O)NC(=O)[C@H](CO)NC(=O)[C@@H](NC(=O)[C@@H](N)CO)[C@@H](C)O)C(=O)N[C@H](C(=O)N[C@@H](C)C(=O)N[C@@H](Cc1ccc(O)cc1)C(=O)N[C@H](C(=O)N[C@@H](CCSC)C(=O)O)[C@@H](C)O)C(C)C", "values": [{"measurement": "IC50", "setting": "[1]", "result": 0.00188, "unit": "µM"}]}, {"smiles": "CN1CCN(C(=O)N[C@@H](Cc2ccccc2)C(=O)N[C@H](/C=C/S(=O)(=O)c2ccccc2)CCc2ccccc2)CC1", "note": "[K-777]", "values": [{"measurement": "IC50", "setting": "[2]", "result": 0.00678, "unit": "µM"}, {"measurement": "IC50", "setting": "[3]", "result": 0.0461, "unit": "µM"}, {"measurement": "CC50 at 72 h", "setting": "[4]", "result": "> 10", "unit": "µM"}, {"measurement": "IC50", "setting": "Human coronavirus 229E [5]", "result": 0.00148, "unit": "µM"}]}, {"smiles": "O=c1cc(-c2ccc(O)c(O)c2)oc2cc(O)cc(O)c12", "note": "[LUTEOLIN]", "values": [{"measurement": "selectivity ratio", "setting": "[6]", "result": 14.6}, {"measurement": "CC50 at 72 h", "setting": "[4]", "result": 155, "unit": "µM"}]}, {"smiles": "CC[C@H](C)[C@H](NC(=O)[C@H](Cc1ccc(O)cc1)NC(=O)[C@H](CO)NC(=O)[C@H](CCC(=O)O)NC(=O)[C@H](CC(N)=O)NC(=O)[C@H](CC(C)C)NC(=O)[C@H](C)NC(=O)[C@H](CCCCN)NC(=O)[C@@H](NC(=O)[C@@H](NC(=O)[C@H](CCC(N)=O)NC(=O)[C@H](CCC(N)=O)NC(=O)[C@H](CC(C)C)NC(=O)[C@H](CO)NC(=O)[C@H](CC(C)C)NC(=O)[C@H](CCSC)NC(=O)[C@H](CCC(=O)O)NC(=O)[C@H](Cc1ccc(O)cc1)NC(=O)[C@@H](NC(=O)[C@H](CC(C)C)NC(=O)[C@H](CC(=O)O)NC(=O)[C@H](CC(C)C)NC(=O)[C@H](CC(C)C)NC(=O)[C@@H](NC(=O)[C@@H](NC(=O)[C@H](CC(N)=O)NC(=O)[C@@H](NC(=O)[C@H](CCC(N)=O)NC(=O)[C@@H](NC(=O)[C@H](CC(C)C)NC(=O)[C@@H](N)CO)[C@@H](C)O)[C@@H](C)CC)[C@@H](C)O)[C@@H](C)O)[C@@H](C)O)C(C)C)C(C)C)C(=O)N[C@@H](CC(=O)O)C(=O)N[C@@H](CC(C)C)C(=O)N[C@@H](CCCCN)C(=O)N[C@@H](CCC(=O)O)C(=O)N[C@@H](CC(C)C)C(=O)O", "values": [{"measurement": "EC50", "setting": "SARS-CoV-2", "result": "> 1000", "unit": "µM"}, {"measurement": "IC50", "setting": "[3]", "result": 0.6, "unit": "µM"}]}, {"smiles": "O=C(Nc1ccc2c(c1)C(=O)c1ccccc1C2=O)c1ccccc1", "values": [{"measurement": "CC50 at 72 h", "setting": "[4]", "result": 20, "unit": "µM"}, {"measurement": "IC50", "setting": "[7]", "result": 9.7, "unit": "µM"}]}, {"smiles": "CCC[C@@H]([C@@H](CC(C)C)C(=O)N[C@@H](CCCCNC(=O)OCc1ccccc1)C(=O)Nc1nccs1)N(O)C=O", "values": [{"measurement": "IC50", "setting": "[8]", "result": 0.001, "unit": "µM"}]}, {"smiles": "CN1CCN(CCOc2cc(OC3CCOCC3)c3c(Nc4c(Cl)ccc5c4OCO5)ncnc3c2)CC1", "note": "[SARACATINIB]", "values": [{"measurement": "IC50", "setting": "HeLa", "result": 2.4, "unit": "µM"}, {"measurement": "IC50", "setting": "Human coronavirus 229E [9]", "result": 5.1, "unit": "µM"}, {"measurement": "CC50", "setting": "[10]", "result": "> 50", "unit": "µM"}]}, {"smiles": "O=c1c(O)c(-c2ccc(O)c(O)c2)oc2cc(O)cc(O)c12", "note": "[QUERCETIN]", "values": [{"measurement": "CC50 at 72 h", "setting": "[4]", "result": 3320, "unit": "µM"}]}, {"smiles": "CCN(CC)CCCC(C)Nc1ccnc2cc(Cl)ccc12", "note": "(centres undefined) [CHLOROQUINE]", "values": [{"measurement": "IC50", "setting": "[8]", "result": 1.13, "unit": "µM"}, {"measurement": "IC50", "setting": "SARS-CoV-2", "result": 1.13, "unit": "µM"}, {"measurement": "CC50 at 72 h", "setting": "[4]", "result": "> 100", "unit": "µM"}]}, {"smiles": "CC(C)(C)OC(=O)N[C@@H](Cc1c[nH]c2ccccc12)C(=O)NNC(=O)OCC(=O)N1CCCc2ccccc21", "values": [{"measurement": "EC50", "setting": "Ebolavirus", "result": 0.193, "unit": "µM"}, {"measurement": "EC50", "setting": "[11]", "result": 0.273, "unit": "µM"}]}, {"smiles": "CC[C@H](C)[C@H](NC(=O)[C@H](C)NC(=O)[C@H](CCCCN)NC(=O)[C@H](CC(N)=O)NC(=O)[C@H](Cc1ccccc1)NC(=O)[C@H](CCC(N)=O)NC(=O)[C@H](CC(N)=O)NC(=O)[C@H](C)NC(=O)[C@@H](NC(=O)[C@H](CCC(N)=O)NC(=O)[C@H](CCCCN)NC(=O)[C@H](CCC(N)=O)NC(=O)[C@H](CC(N)=O)NC(=O)[C@H](CCC(=O)O)NC(=O)[C@@H](N)Cc1ccc(O)cc1)[C@@H](C)CC)C(=O)N[C@@H](CO)C(=O)N[C@@H](CCC(N)=O)C(=O)N[C@H](C(=O)N[C@@H](CCC(N)=O)C(=O)N[C@@H](CCC(=O)O)C(=O)N[C@@H](CO)C(=O)N[C@@H](CC(C)C)C(=O)N[C@H](C(=O)N[C@H](C(=O)N[C@H](C(=O)N[C@@H](CO)C(=O)N[C@H](C(=O)N[C@@H](C)C(=O)O)[C@@H](C)O)[C@@H](C)O)[C@@H](C)O)[C@@H](C)O)[C@@H](C)CC", "values": [{"measurement": "EC50", "setting": "SARS-CoV", "result": 1.61, "unit": "µM"}]}, {"smiles": "CCN(CCO)CCCC(C)Nc1ccnc2cc(Cl)ccc12", "note": "(centres undefined) [HYDROXYCHLOROQUINE]", "values": [{"measurement": "IC50", "setting": "[8]", "result": 0.72, "unit": "µM"}]}, {"smiles": "C/C(=N/NC(N)=S)c1cccs1", "values": [{"measurement": "IC50", "setting": "Procathepsin L", "result": 5.33, "unit": "µM"}, {"measurement": "CC50 at 72 h", "setting": "[4]", "result": 100, "unit": "µM"}, {"measurement": "EC50", "setting": "[11]", "result": 6.4, "unit": "µM"}]}, {"smiles": "OC(COc1cccc(OCC(O)CN2CCCCC2)c1)CN1CCCCC1", "note": "(centres undefined)", "values": [{"measurement": "EC50", "setting": "[11]", "result": 3, "unit": "µM"}]}, {"smiles": "CC(C)C[C@H](NC(=O)[C@@H]1CCCN1C(=O)[C@H](CO)NC(=O)[C@H](CS)NC(=O)[C@H](Cc1cnc[nH]1)NC(=O)[C@H](CO)NC(=O)[C@H](Cc1ccc(O)cc1)NC(=O)[C@H](CC(=O)O)NC(=O)CN)C(=O)N[C@@H](CCCNC(=N)N)C(=O)N[C@@H](Cc1ccc(O)cc1)C(=O)N[C@@H](Cc1ccc(O)cc1)C(=O)N1CCC[C@H]1C(=O)N[C@@H](Cc1c[nH]c2ccccc12)C(=O)N[C@@H](Cc1c[nH]c2ccccc12)C(=O)N[C@@H](CCCCN)C(=O)N[C@@H](CS)C(=O)N[C@H](C(=O)N[C@@H](Cc1ccc(O)cc1)C(=O)N1CCC[C@H]1C(=O)N[C@@H](CC(=O)O)C(=O)N1CCC[C@H]1C(=O)N[C@@H](CCC(=O)O)C(=O)NCC(=O)NCC(=O)NCC(=O)O)[C@@H](C)O", "values": [{"measurement": "IC50", "setting": "[12]", "result": 0.01, "unit": "µM"}, {"measurement": "Ki", "setting": "[13]", "result": 0.0028, "unit": "µM"}]}]}
